Key:
Assay type in all cases: functional
[1] = species on record: Rattus norvegicus; assay: Anticonvulsant activity in rat assessed as protection against pentylenetetrazole-induced clonic seizures; conditions: read-out: MED
[2] = species on record: Rattus norvegicus; assay: Antianxiety activity in Holtzman rat assessed as dose required to elicit increase in milk consumption; conditions: read-out: MED
[3] = species on record: Rattus norvegicus; assay: Ratio of diazepam MED to compound MED for antianxiety activity in Holtzman rat

Structure (SMILES): Cl.Cn1ncc2c1NC(=O)CN=C2c1ccccc1
- minimal effective dose [1]: 250 mg/kg
- minimal effective dose [2]: > 80 mg/kg

Structure (SMILES): Cc1nn(C)c2c1C(c1ccccc1)=NCC(=O)N2
- minimal effective dose [1]: 16 mg/kg
- minimal effective dose [2]: 10 mg/kg

Structure (SMILES): Cc1nn(C)c2c1C(c1ccccc1)=NCC(=O)N2C
- minimal effective dose [1]: 4 mg/kg
- minimal effective dose [2]: 2.5 mg/kg

Structure (SMILES): Cc1nn(C)c2c1C(c1ccccc1)=NCC(=O)N2C.Cl
- minimal effective dose [1]: 4 mg/kg
- minimal effective dose [2]: 2.5 mg/kg

Structure (SMILES): Cc1nn(C)c2c1C(c1cccs1)=NCC(=O)N2
- minimal effective dose [2]: 40 mg/kg

Structure (SMILES): CCc1nn(C)c2c1C(c1ccccc1)=NCC(=O)N2
- minimal effective dose [1]: 8 mg/kg
- minimal effective dose [2]: 2.5 mg/kg

Structure (SMILES): CCc1nn(C)c2c1C(c1ccccc1)=NCC(=O)N2C
- minimal effective dose [1]: 4 mg/kg
- minimal effective dose [2]: 1.25 mg/kg

Structure (SMILES): Cc1nn(C)c2c1C(c1ccccc1Cl)=NCC(=O)N2
- minimal effective dose [1]: 16 mg/kg
- minimal effective dose [2]: 2.5 mg/kg

Structure (SMILES): Cc1nn(C)c2c1C(c1ccccc1Cl)=NCC(=O)N2C.Cl
- minimal effective dose [1]: 4 mg/kg
- minimal effective dose [2]: 2.5 mg/kg

Structure (SMILES): Cc1nn(C)c2c1C(c1cccc(Cl)c1)=NCC(=O)N2
- minimal effective dose [1]: > 500 mg/kg
- minimal effective dose [2]: > 40 mg/kg

Structure (SMILES): Cc1nn(C)c2c1C(c1ccccc1F)=NCC(=O)N2
- minimal effective dose [1]: 8 mg/kg
- minimal effective dose [2]: 2.5 mg/kg

Structure (SMILES): CCN1C(=O)CN=C(c2ccccc2F)c2c(C)nn(C)c21
- minimal effective dose [1]: 32 mg/kg
- minimal effective dose [2]: 5 mg/kg

Structure (SMILES): CCc1nn(C)c2c1C(c1ccccc1F)=NCC(=O)N2
- minimal effective dose [1]: 2 mg/kg
- minimal effective dose [2]: 1.25 mg/kg

Structure (SMILES): CCc1nn(C)c2c1C(c1ccccc1F)=NCC(=O)N2.Cl
- minimal effective dose [1]: 2 mg/kg
- minimal effective dose [2]: 1.25 mg/kg

Structure (SMILES): CCc1nn(C)c2c1C(c1ccccc1F)=NCC(=O)N2C
- minimal effective dose [1]: 4 mg/kg
- minimal effective dose [2]: 1.25 mg/kg

Structure (SMILES): CCc1nn(C)c2c1C(c1cccc(F)c1)=NCC(=O)N2
- minimal effective dose [1]: 32 mg/kg
- minimal effective dose [2]: 20 mg/kg

Structure (SMILES): CCc1nn(C)c2c1C(c1cccc(F)c1)=NCC(=O)N2C
- minimal effective dose [1]: 32 mg/kg
- minimal effective dose [2]: 10 mg/kg

Structure (SMILES): CCc1nn(C)c2c1C(c1ccc(F)cc1)=NCC(=O)N2
- minimal effective dose [1]: > 500 mg/kg
- minimal effective dose [2]: > 40 mg/kg

Structure (SMILES): CCc1nn(C)c2c1C(c1ccc(F)cc1)=NCC(=O)N2C
- minimal effective dose [1]: > 500 mg/kg
- minimal effective dose [2]: > 40 mg/kg

Structure (SMILES): Cc1nn(C)c2c1C(c1ccccc1Br)=NCC(=O)N2C
- minimal effective dose [1]: 4 mg/kg
- minimal effective dose [2]: 5 mg/kg

Structure (SMILES): Cc1nn(C)c2c1C(c1c(F)cccc1F)=NCC(=O)N2C
- minimal effective dose [1]: 2 mg/kg
- minimal effective dose [2]: 20 mg/kg

Structure (SMILES): Cc1nn(C)c2c1C(c1ccccc1[N+](=O)[O-])=NCC(=O)N2C
- minimal effective dose [1]: 8 mg/kg

Structure (SMILES): Cc1nn(C)c2c1C(c1ccccc1N=[N+]=[N-])=NCC(=O)N2C
- minimal effective dose [1]: 63 mg/kg
- minimal effective dose [2]: > 40 mg/kg

Structure (SMILES): Cn1nc(Cl)c2c1NC(=O)CN=C2c1ccccc1
- minimal effective dose [1]: 63 mg/kg
- minimal effective dose [2]: 40 mg/kg

Structure (SMILES): COc1nn(C)c2c1C(c1ccccc1F)=NCC(=O)N2C
- minimal effective dose [1]: 8 mg/kg
- minimal effective dose [2]: 10 mg/kg

Structure (SMILES): CCc1nn(C)c2c1C(c1ccccc1Cl)=NCC(=O)N2
- minimal effective dose [1]: 32 mg/kg
- minimal effective dose [2]: 2.5 mg/kg

Structure (SMILES): CCc1nn(C)c2c1C(c1ccccc1Cl)=NCC(=O)N2C
- minimal effective dose [1]: 16 mg/kg
- minimal effective dose [2]: 0.63 mg/kg

Structure (SMILES): CC(C)c1nn(C)c2c1C(c1ccccc1Cl)=NCC(=O)N2
- minimal effective dose [1]: 125 mg/kg
- minimal effective dose [2]: > 40 mg/kg

Structure (SMILES): CC(C)c1nn(C)c2c1C(c1ccccc1Cl)=NCC(=O)N2C
- minimal effective dose [1]: 63 mg/kg
- minimal effective dose [2]: > 40 mg/kg

Structure (SMILES): CCCc1nn(C)c2c1C(c1ccccc1Cl)=NCC(=O)N2
- minimal effective dose [1]: 250 mg/kg
- minimal effective dose [2]: > 40 mg/kg

Structure (SMILES): CCCc1nn(C)c2c1C(c1ccccc1Cl)=NCC(=O)N2C
- minimal effective dose [1]: 63 mg/kg
- minimal effective dose [2]: > 40 mg/kg

Structure (SMILES): CCCCc1nn(C)c2c1C(c1ccccc1Cl)=NCC(=O)N2
- minimal effective dose [1]: > 500 mg/kg
- minimal effective dose [2]: > 40 mg/kg

Structure (SMILES): CCCCc1nn(C)c2c1C(c1ccccc1Cl)=NCC(=O)N2C
- minimal effective dose [1]: 125 mg/kg
- minimal effective dose [2]: > 40 mg/kg

Structure (SMILES): CCn1nc(C)c2c1NC(=O)CN=C2c1ccccc1F
- minimal effective dose [1]: 8 mg/kg
- minimal effective dose [2]: 2.5 mg/kg

Structure (SMILES): CCn1nc(C)c2c1N(C)C(=O)CN=C2c1ccccc1F
- minimal effective dose [1]: 4 mg/kg
- minimal effective dose [2]: 1.25 mg/kg

Structure (SMILES): CCn1nc(C)c2c1NC(=O)CN=C2c1ccccc1Cl
- minimal effective dose [1]: 8 mg/kg
- minimal effective dose [2]: 5 mg/kg

Structure (SMILES): CCn1nc(C)c2c1N(C)C(=O)CN=C2c1ccccc1Cl
- minimal effective dose [1]: 4 mg/kg
- minimal effective dose [2]: 0.63 mg/kg

Structure (SMILES): C=CCN1C(=O)CN=C(c2ccccc2Cl)c2c(C)nn(CC)c21
- minimal effective dose [1]: 63 mg/kg
- minimal effective dose [2]: > 40 mg/kg

Structure (SMILES): CCCn1nc(C)c2c1NC(=O)CN=C2c1ccccc1Cl
- minimal effective dose [1]: 63 mg/kg
- minimal effective dose [2]: 40 mg/kg

Structure (SMILES): CCCn1nc(C)c2c1N(C)C(=O)CN=C2c1ccccc1Cl
- minimal effective dose [1]: 16 mg/kg
- minimal effective dose [2]: 2.5 mg/kg

Structure (SMILES): Cc1nn(C(C)C)c2c1C(c1ccccc1Cl)=NCC(=O)N2
- minimal effective dose [1]: 16 mg/kg
- minimal effective dose [2]: 20 mg/kg

Structure (SMILES): CCCCn1nc(C)c2c1NC(=O)CN=C2c1ccccc1Cl
- minimal effective dose [1]: 32 mg/kg
- minimal effective dose [2]: 40 mg/kg

Structure (SMILES): CCCCn1nc(C)c2c1N(C)C(=O)CN=C2c1ccccc1Cl
- minimal effective dose [1]: 16 mg/kg
- minimal effective dose [2]: 40 mg/kg

Structure (SMILES): CCCCn1nc(C)c2c1NC(=O)CN=C2c1cccc(Cl)c1
- minimal effective dose [1]: > 500 mg/kg
- minimal effective dose [2]: > 40 mg/kg

Structure (SMILES): Cc1nn(C2CCCCC2)c2c1C(c1ccccc1Cl)=NCC(=O)N2
- minimal effective dose [1]: > 500 mg/kg
- minimal effective dose [2]: > 40 mg/kg

Structure (SMILES): Cc1nn(C2CCCCC2)c2c1C(c1ccccc1Cl)=NCC(=O)N2C
- minimal effective dose [1]: 63 mg/kg
- minimal effective dose [2]: > 40 mg/kg

Structure (SMILES): Cc1nn(-c2ccccc2)c2c1C(c1ccccc1)=NCC(=O)N2
- minimal effective dose [1]: > 500 mg/kg
- minimal effective dose [2]: > 40 mg/kg

Structure (SMILES): Cc1nn(-c2ccccc2)c2c1C(c1ccccc1Cl)=NCC(=O)N2
- minimal effective dose [1]: 500 mg/kg
- minimal effective dose [2]: 20 mg/kg

Structure (SMILES): Cc1nn(C)c2c1C(c1ccccc1)=[N+]([O-])CC(=O)N2C
- minimal effective dose [1]: 63 mg/kg
- minimal effective dose [2]: > 40 mg/kg

Structure (SMILES): Cc1nn(C)c2c1C(c1ccccc1)=NC(O)C(=O)N2C (stereo not given)
- minimal effective dose [1]: 16 mg/kg
- minimal effective dose [2]: 5 mg/kg

Structure (SMILES): Cc1nn(C)c2c1C(c1ccccc1F)=[N+]([O-])CC(=O)N2C
- minimal effective dose [1]: 8 mg/kg
- minimal effective dose [2]: 10 mg/kg

Structure (SMILES): CC(=O)OC1N=C(c2ccccc2F)c2c(C)nn(C)c2N(C)C1=O (stereo not given)
- minimal effective dose [1]: 8 mg/kg
- minimal effective dose [2]: 20 mg/kg

Structure (SMILES): Cc1nn(C)c2c1C(c1ccccc1F)=NC(O)C(=O)N2C (stereo not given)
- minimal effective dose [1]: 4 mg/kg
- minimal effective dose [2]: 2.5 mg/kg

Structure (SMILES): CCc1nn(C)c2c1C(c1ccccc1)NCC(=O)N2C.Cl (stereo not given)
- minimal effective dose [1]: 63 mg/kg
- minimal effective dose [2]: > 40 mg/kg

Structure (SMILES): Cc1nn(C)c2c1C(c1ccccc1F)NCC(=O)N2C.Cl (stereo not given)
- minimal effective dose [1]: 4 mg/kg
- minimal effective dose [2]: 1.2 mg/kg

Structure (SMILES): CN1C(=O)CN=C(c2ccccc2)c2cc(Cl)ccc21 [DIAZEPAM]
- minimal effective dose [1]: 4 mg/kg
- minimal effective dose [2]: 1.25 mg/kg

Structure (SMILES): Cc1nn(C)c2c1C(c1ccccc1F)=NCC(=O)N2C.Cl [ZOLAZEPAM HYDROCHLORIDE]
- minimal effective dose [1]: 2 mg/kg
- minimal effective dose [2]: 0.32 mg/kg

Structure (SMILES): Cc1nn(C)c2c1C(c1ccccc1F)=NCC(=O)N2C [ZOLAZEPAM]
- minimal effective dose [1]: 2 mg/kg
- minimal effective dose [2]: 0.32 mg/kg
- Ratio [3]: 5

Reference: ChEMBL document CHEMBL3272205, “Pyrazolodiazepines. 2. 4-Aryl-1,3-dialkyl-6,8-dihydropyrazolo[3,4-e] [1,4]diazepin-7(1H)-ones as antianxiety and anticonvulsant agents” (1977)
